In patent US9024022B2, “Substrates of O6-alkylguanine-DNA alkyltransferase and mutants thereof” (Cis Bio International, priority 2008, dated 2015):
pEC50: −log10 of the molar value.

Columns and labels:
[1] = molecular target: T1, SNAP-tag enzyme (GST-SNAP-tag-FKBP fusion protein) (Homo sapiens, UniProt P16455, A127T/C150S/C62A/G131K/G132T/K125A/M134L/N157G/R128A/R135S/S159E); assay: Enzymatic reactivity test in an in vitro model (TR-FRET labeling of GST-SNAPtag-FKBP recombinant protein); assay type: biochemical; conditions: for reactivity of the substrate with the SNAP-tag enzyme: in vitro protein labeling, compared with reference substrate
T1 construct: GST (N)
T1 sequence (P16455 1-182 C62A/K125A/A127T/R128A/G131K/G132T/M134L/R135S/C150S/N157G/S159E limits assumed): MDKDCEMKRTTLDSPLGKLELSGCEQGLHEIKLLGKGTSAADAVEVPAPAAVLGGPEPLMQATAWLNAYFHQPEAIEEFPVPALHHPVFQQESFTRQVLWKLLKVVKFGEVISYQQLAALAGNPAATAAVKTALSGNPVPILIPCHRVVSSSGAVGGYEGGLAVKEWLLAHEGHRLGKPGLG
Description: The test of reactivity of the substrates according to the invention with the SNAP-tag enzyme is based on an in vitro test of labeling a recombinant protein.
In this case, use is made of the FRB and FKBP proteins that interact in the presence of rapamycin.
The FKBP protein is labeled by a first fluorophore via SNAP-tag technology: for this, a GST-SNAPtag-FKBP fusion protein is produced from the pSET7-26b plasmid according to the protocol of the commercial kit (SNAP express pSET7-26b kit, Covalys Biosciences AG, Witterswil/Switzerland). This fusion protein is then brought into contact with the first fluorophore conjugated to a reference BG derivative or to a BG derivative according to the invention.
The FRB protein is itself coupled via conventional conjugation techniques with a donor fluorescent compound (europium TBP cryptate (KTBP), Cisbio Bioassay) or acceptor fluorescent compound (DY647, Dyomics) depending on the case, following the protocols provided with these products.
The table below explains the nature of the pairs of fluorophores in each of the following examples 1 to 4:
In each example, 2 nmol of FRB recombinant protein labeled with a europium cryptate or DY647 (2nd fluorophore) are co-incubated at ambient temperature with 2 nmol of GST-SNAP-tag-FKBP recombinant protein and increasing concentrations of BG labeled by the first fluorophore (BG-fluorophore of the prior art or BG-L1-A-L2-fluorophore according to the invention).
The fluorescence readings are taken at 620 nm and at 665 nm on a RubyStar machine (BMG laboratory) after an excitation at 337 nm. The readings are carried out before and after induction of the FRB/FKBP protein interaction by 100 nM of rapamycin. This interaction is expressed by the emission of a TR-FRET signal. Since the SNAP-tag enzyme can only attach to a single fluorescent group, the increase in the TR-FRET signal is directly proportional to the percentage of labeled proteins in the reaction medium. This in vitro model makes it possible to establish enzymatic labeling kinetics as a function of the excess of substrate involved in the reaction.
The results are indicated either as d665 or as % labeling according to the following formulae: d 665=(signal at 665 nm with the GST-ST-FKBP protein)−(signal at 665 nm without the GST-ST-FKBP protein).
The percentage of labeling is obtained by comparison with the signal corresponding to the maximum labeling that is obtained after 18 hours of incubation. % labeling=(d665 at t measured/d665 18 h of incubation)×100. Procedure of the Enzymatic Reactivity Test in a Cell Model

[2] = molecular target: T2, SNAP-tag-ST26 enzyme (SNAP-tag-mGluR2 fusion protein) (Homo sapiens, UniProt P16455, A127T/C150S/C62A/G131K/G132T/K125A/M134L/N157G/R128A/R135S/S159E); assay: Enzymatic reactivity test in a cell model, SNAP-tag-mGluR2 expressed by COS 7 cells; assay type: cell-based; conditions: living COS 7 cells, labeling 1 h at 37° C., read-out: half saturation concentration of the enzyme
T2 construct: expressed in transfected cells; host or cells: COS 7 cells, transient electroporation
T2 sequence (P16455 1-182 C62A/K125A/A127T/R128A/G131K/G132T/M134L/R135S/C150S/N157G/S159E limits assumed): T1 sequence (P16455 1-182 C62A/K125A/A127T/R128A/G131K/G132T/M134L/R135S/C150S/N157G/S159E limits assumed)
Method: This procedure makes it possible to test the reactivity of substrates according to the invention with an AGT expressed by COS 7 cells in the form of a fusion protein with the type 2 glutamate transmembrane receptor (mGluR2).
Various mutants of AGT were analyzed in this study: SNAP-tag-ST26 or CLIP-tag from Covalys or the N-AGT mutant described by Gronemeyer et al. (Protein Engineering, Design & Selection, Vol. 19, No. 7, pp. 309-316, 2006).
• SNAP-tag-mGluR2 plasmid, prepared from the pSET-26b plasmid according to the protocol of the commercial kit (SNAP express pSTE7-26b kit, Covalys Biosciences) • Invitrogen pcdna3.1 plasmid. This plasmid is used as a negative control; the cells transfected with this plasmid are denoted “mock” and make it possible to determine the level of non-specific labeling. Protocol:
The transient transfection of the cells is carried out by electroporation using a Biorad electroporator: 10 million cells are transfected by 1 μg SNAP-tag-mGluR2+3 μg pcdna3.1 in a final volume of 300 μl. The electroporation parameters are: 280 V & 1000 μF.
The cells are then seeded at 150 000 cells per well in Greiner plates (opaque black bottom) previously incubated with polyornithine for 30 minutes at 37° C.
The cells are cultured in the DMEM+Phenol Red+10% FCS+penicillin/streptomycin+non-essential amino acids medium at 37° C. and 5% CO2. After 24 h of expression, a first washing operation is carried out with 100 μl of this same medium.
The labeling of the AGT-mGluR2 fusion protein takes place in 100 μl of complete medium with increasing concentrations of BG-fluorophore or BG-L1-A-L2-fluorophore according to the invention for 1 h at 37° C. Before the reading, 4 washing operations are carried out with 100 μl of Tris-Krebs.
For the substrates bearing fluorophores ATTO647 (example 2), DY647 (examples 1 and 5) and fluorescein-5-EX (example 3), the reading is carried out in 100 μl of Tris-Krebs in direct fluorescence at 682 nm on a Rubystar machine, and at 520 nm for those bearing fluorescein-5-EX (example 3).
For the substrates bearing the terbium KR complex (examples 4 and 6), the reading is taken in 100 μl of Tris-Krebs in time-resolved fluorescence at 620 nm on a Rubystar machine.

[3] = molecular target: T3, CLIP-tag enzyme (CLIPtag-mGluR2 fusion protein) (Homo sapiens, UniProt P16455, A121V/A127T/A154D/C150Q/C62A/G131N/G132T/G153S/K125A/K32I/L33F/M134L/M60I/N157P/Q115S/Q116H/R128A/R135D/S151G/S152D/S159L/Y114E); assay: Cell model with CLIPtag-mGluR2 and SNAPtag-mGluR2 cotransfection, TR-FRET at 665 nm; assay type: cell-based; conditions: cells incubated with 300 nM of BG-methylbenzamide-Tb(KR); TR-FRET; read-out: half saturation concentration of CLIPtag
T3 construct: The co-expressed SNAPtag-mGluR2 is a separate chain that carries the FRET partner dye
T3 sequence (P16455 1-207 K32I/L33F/M60I/C62A/Y114E/Q115S/Q116H/A121V/K125A/A127T/R128A/G131N/G132T/M134L/R135D/C150Q/S151G/S152D/G153S/A154D/N157P/S159L): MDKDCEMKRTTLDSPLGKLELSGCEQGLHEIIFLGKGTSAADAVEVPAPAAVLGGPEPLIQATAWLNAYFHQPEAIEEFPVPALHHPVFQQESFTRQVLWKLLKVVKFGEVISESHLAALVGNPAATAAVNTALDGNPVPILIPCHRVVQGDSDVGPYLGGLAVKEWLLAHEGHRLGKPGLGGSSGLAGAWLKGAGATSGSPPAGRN
Method: (§1) The cell model used in this example is different from that used in the preceding examples:
(§2) The cells are either cotransfected with a plasmid coding for the fusion protein CLIPtag-mGluR2 and another plasmid coding for the fusion protein SNAPtag-mGluR2, or transfected with a single plasmid coding for the fusion protein SNAPtag-mGluR2.
(§3) Each cell population is incubated in the presence of 300 nM of BG-methylbenzamide-DY647 and increasing concentrations of reference substrates (BC-Tb(KR)) or of a substrate according to the invention (BC-methylbenzamide-Tb(KR)). The fluorescence is measured at 665 nm in TR-FRET mode on a Rubystar machine and the signal measured is representative of a transfer of energy following the dimerization of two monomers of mGluR2 labeled respectively by DY647 and Tb(KR).
(§4) This example is carried out in the same way as example 7 but the cells are incubated in the presence of 300 nM of BG-methylbenzamide-Tb(KR) and increasing concentrations of reference substrate (BC-DY647) or of substrate according to the invention (BC-methylbenzamide-DY647), the formulae of which are below: […]

[4] = molecular target: T4, CLIP-tag enzyme (CLIPtag-mGluR2 fusion protein) (Homo sapiens, UniProt P16455, K32I/L33F/M60I/C62A/Y114E/Q115S/Q116H/A121V/K125A/A127T/R128A/G131N/G132T/M134L/R135D/C150Q/S151G/S152D/G153S/A154D/N157P/S159L); assay: as above; assay type: cell-based; conditions: cells incubated with 300 nM of BG-methylbenzamide-DY647; TR-FRET 665 nm; read-out: half saturation concentration of CLIPtag
T4 construct: The co-expressed SNAPtag-mGluR2 is a separate chain that carries the FRET partner dye
T4 sequence (P16455 1-207 K32I/L33F/M60I/C62A/Y114E/Q115S/Q116H/A121V/K125A/A127T/R128A/G131N/G132T/M134L/R135D/C150Q/S151G/S152D/G153S/A154D/N157P/S159L): T3 sequence (P16455 1-207 K32I/L33F/M60I/C62A/Y114E/Q115S/Q116H/A121V/K125A/A127T/R128A/G131N/G132T/M134L/R135D/C150Q/S151G/S152D/G153S/A154D/N157P/S159L)
Method: as §1, §2, §3, §4

With `Nc1nc(OCc2ccc(CNC(=O)CCSCC(=O)Nc3ccc(-c4c5ccc(=O)cc-5oc5cc(O)ccc45)c(C(=O)O)c3)cc2)c2nc[nH]c2n1` [BG-fluorescein-5-EX, benzylguanine-fluorescein-5-EX, reference compound] the “reactivity of the substrate with the SNAP-tag enzyme” value (“reactivity of the substrate” below) [1] was “adequate”.

“Tb(KR)-methylbenzamide-BG [BG-methylbenzamide-Tb(KR)]” was tested, and the pEC50 [2] was 7.81 and the “reactivity of the substrate” value [1] was “much better reactivity”.

In the case of “DY647-aminomethylnicotinamide-benzylguanine [BG-aminomethylnicotinamide-DY647]”, the “percentage of labeling of the SNAP-tag enzyme compared with the reference substrate” value ([1]; in vitro, after 30 min of incubation, regardless of the concentration of substrate) was “much better”.

For `CCN1/C(=C/C=C/C=C/C2=[N+](CC)c3ccc(S(=O)(=O)[O-])cc3C2(C)C)C(C)(CCCC(=O)NCc2ccc(C(=O)NCc3ccc(COc4nccc(N)n4)cc3)cc2)c2cc(S(=O)(=O)O)ccc21` (stereo not drawn) [BC-methylbenzamide-DY647, DY647-methylbenzamide-BC], the pEC50 [3] was 6.62.

“DY647-cis-cyclohexane-benzylguanine [BG-cis-cyclohexane-DY647]” was tested, and the “percentage of enzyme labeled compared with the reference substrate” value ([1]; in vitro, after 1 h of incubation, regardless of the substrate concentration) was “much better”.

`CCN1/C(=C/C=C/C=C/C2=[N+](CC)c3ccc(S(=O)(=O)[O-])cc3C2(C)C)C(C)(CCCC(=O)NCc2ccc(COc3nccc(N)n3)cc2)c2cc(S(=O)(=O)O)ccc21` (stereo not drawn) [BC-DY647, benzylcytosine-DY647, reference compound] showed a pEC50 [3] of 5.80.

For “Tb(KR)-aminomethylnicotinamide-benzylguanine [BG-aminomethylnicotinamide-Tb(KR)]”, the “reactivity of the substrate” value [1] was “Results similar to those obtained with the compounds of the preceding examples”.

Compound “benzylcytosine-Tb(KR) [BC-Tb(KR), reference compound]” has a pEC50 [4] of 6.09.
